This note sets out measurements from ChEMBL document CHEMBL3351513, “Norbornane-based nucleoside and nucleotide analogues locked in North conformation” (Bioorg Med Chem, 2015).

Active and inactive are the calls of the source. The rule behind the calls is not given here. Where only a bound is given, the exact number is not on record here.

One series deals with Coxsackievirus B4. Briefly: Antiviral activity against Coxsackievirus B4 infected in african green monkey Vero cells assessed as inhibition of virus-induced cytopathicity. It counts as functional, organism-based. The note with it: for EC50: Enterovirus B. (In general: Protection from cytopathic effect is a common read-out in antiviral testing.)
Series [1] concerns Human immunodeficiency virus 1. Briefly: Antiviral activity against HIV1 3B infected in human CEM cells assessed as inhibition of virus-induced syncytium formation by microscopy. The note with it: Human immunodeficiency virus 1, 3B, CCRF-CEM.
Series [2] in a line: Cytotoxicity against human CEM cells infected with HIV2. It is filed as cell-based, CCRF-CEM.
Series [3] can be described thus: Inhibition of human PI4K3alpha expressed in Escherichia coli BL21 after 60 mins by ADP-GloTM Kinase Assay. A general note: ADP-Glo turns the ADP formed in a reaction into a luminescent signal.
Series [4] can be described thus: Inhibition of human PI4K3beta expressed in Escherichia coli BL21 after 60 mins by ADP-GloTM Kinase Assay.
Series [5] in a line: Cytotoxicity against human CEM cells infected with HIV1. It counts as cell-based, CCRF-CEM. The following applies: CEM cells infected with HIV-1.
Another series concerns MDCK. Briefly: Cytotoxicity against MDCK cells. The following applies: Canis lupus familiaris.
Series [6] concerns Influenza A virus. Briefly: Antiviral activity against influenza A virus H1N1 infected in MDCK cells assessed as inhibition of virus-induced cytopathic effect.
A further series relates to HeLa. Briefly: Cytostatic activity against human HeLa cells after 72 hrs by Coulter counting.
Series [7] in a line: Cytotoxicity against cat CRFK cells. It counts as cell-based, Felis catus.
Another series relates to CCRF-CEM. Briefly: Cytostatic activity against human CEM cells after 72 hrs by Coulter counting.
In series [8] the test system is Human immunodeficiency virus 2. Briefly: Antiviral activity against HIV2 ROD infected in human CEM cells assessed as inhibition of virus-induced syncytium formation by microscopy. The note with it: Human immunodeficiency virus 2, ISOLATE ROD, CCRF-CEM.
A further series has as its system L1210. Briefly: Cytostatic activity against mouse L1210 cells after 48 hrs by Coulter counting. The note with it: L1210, 48 h.
Series [9] deals with Felid alphaherpesvirus 1. Briefly: Antiviral activity against Feline herpesvirus 1 infected in cat CRFK cells assessed as inhibition of virus induced cytopathicity. The following applies: Felid alphaherpesvirus 1, CRFK.
A short description of series [10]: Cytotoxicity against african green monkey Vero cells. It is filed as cell-based. The note with it: chlorocebus sabaeus.
Series [11] has as its system Human immunodeficiency virus 2. Briefly: Antiviral activity against HIV2 ROD infected in human CEM cells assessed as inhibition of virus-induced syncytium formation at 100 uM by microscopy. It is filed as functional, organism-based. The following applies: ISOLATE ROD, CCRF-CEM.
Series [12] has as its system Influenza A virus. Briefly: Antiviral activity against influenza A virus H1N1 infected in MDCK cells assessed as inhibition of virus-induced cytopathic effect at 100 uM. It counts as functional, organism-based.
Series [13] concerns Human immunodeficiency virus 1. Briefly: Antiviral activity against HIV1 3B infected in human CEM cells assessed as inhibition of virus-induced syncytium formation at 100 uM by microscopy. It is filed as functional, organism-based. The following applies: CCRF-CEM.
Series [14] relates to Felid alphaherpesvirus 1. Briefly: Antiviral activity against Feline herpesvirus 1 infected in cat CRFK cells assessed as inhibition of virus induced cytopathicity at 100 uM. It counts as functional, organism-based.

`Nc1ncnc2c1ncn2[C@@H]1C[C@@]2(CO)CC[C@@H]1C2`: in the series with Coxsackievirus B4, the inhibition entry was “inactive”. The EC50 (as a rule, the concentration giving half of the maximal effect) in [1] is 100 µM; in the series with MDCK it was above 386 µg/mL; in the series with Influenza A virus [6] it was 179 µM; in series [8], 231 µM; in the series on Felid alphaherpesvirus 1 [9] it was 58 µM. Further, the CC50 in series [2], in series [5] and in series [7] was above 386 µM each time. Further, the half-inhibitory concentration (IC50) – broadly, the midpoint of a concentration-inhibition curve – in series [3] is above 100 µM; in series [4], above 100 µM; in the series with HeLa, 609 µM; in the series on CCRF-CEM, above 386 µM; in the series on L1210, 408 µM.

Regarding `OC[C@]12CC[C@H](C1)[C@H](n1cnc3c(Cl)ncnc31)C2` (relative stereo), the EC50 with Coxsackievirus B4 turned out to be 25 µM. In series [10], the half-maximal cytotoxic concentration (CC50) (as a rule, the concentration that lowers cell viability or growth by half) is above 359 µM.

Turning to `Nc1nc(Cl)c2ncn([C@@H]3C[C@@]4(CO)CC[C@@H]3C4)c2n1` (relative stereo), in the series on Coxsackievirus B4, the EC50 was 31 µM. The CC50 in series [10] was above 359 µM. The IC50 with HeLa was above 340 µM; in the series on CCRF-CEM, 88 µM; with L1210 it was 139 µM.

In the case of `COC(=O)[C@H](C)NP(=O)(OC[C@]12CC[C@H](C1)[C@H](n1cnc3c(NC4CC4)ncnc31)C2)Oc1ccccc1` (relative stereo), the values for the IC50 in the series on HeLa, in the series on CCRF-CEM and in the series with L1210 were 136 µM, 78 µM and 129 µM, respectively.

Regarding `COC(=O)[C@H](C)NP(=O)(OC[C@]12CC[C@H](C1)[C@H](n1cnc3c(N)ncnc31)C2)Oc1ccccc1` (relative stereo), the inhibition entry (in [11]; in the series on Influenza A virus [12]; in series [13]; in the series with Felid alphaherpesvirus 1 [14]) was “inactive” throughout. In addition, the half-inhibitory concentration (IC50) is above 200 µM with HeLa, at least 200 µM in the series on CCRF-CEM and 160 µM with L1210.

On to `Nc1nc(N)c2ncn([C@@H]3C[C@@]4(CO)CC[C@@H]3C4)c2n1` (relative stereo), for which the results for the IC50 with HeLa, in the series on CCRF-CEM and in the series on L1210 were 190 µM, 174 µM and 179 µM, respectively.

With `Nc1nc(NC2CC2)c2ncn([C@@H]3C[C@@]4(CO)CC[C@@H]3C4)c2n1` (relative stereo), the IC50 worked out at 101 µM in the series on HeLa, 124 µM in the series on CCRF-CEM and 146 µM in the series with L1210.

For `CN(C)c1ncnc2c1ncn2[C@@H]1C[C@@]2(CO)CC[C@@H]1C2` (relative stereo), in the series on Coxsackievirus B4, the inhibition result is “inactive”.

Consider `OC[C@]12CC[C@H](C1)[C@H](n1cnc3c(=S)[nH]cnc31)C2` (relative stereo), for which the inhibition entry with Coxsackievirus B4 is “inactive”.

Regarding `OC[C@]12CC[C@H](C1)[C@H](n1cnc3c(NC4CC4)ncnc31)C2` (relative stereo), the inhibition result in the series with Coxsackievirus B4 was “inactive”.

For the compound `O=c1[nH]cc(F)c(=O)[nH]1` [FLUOROURACIL], it took 2.6 µM to reach half-maximal inhibition in the series with HeLa (IC50).
